In patent EP3502102A1, “STING INHIBITORS” (ECOLE POLYTECHNIQUE FEDERALE DE LAUSANNE (EPFL), priority 2017, dated 2019):

What was measured:
[1] = biological target: T1, RIG-I (Homo sapiens, UniProt O95786); assay: IFN-beta luciferase reporter in HEK293T cells transfected with RIG-I (counter-screen); assay type: cell-based; conditions: 0.01-5µM
T1 construct: expressed in transfected cells; host or cells: HEK293T
T1 sequence (O95786 1-925): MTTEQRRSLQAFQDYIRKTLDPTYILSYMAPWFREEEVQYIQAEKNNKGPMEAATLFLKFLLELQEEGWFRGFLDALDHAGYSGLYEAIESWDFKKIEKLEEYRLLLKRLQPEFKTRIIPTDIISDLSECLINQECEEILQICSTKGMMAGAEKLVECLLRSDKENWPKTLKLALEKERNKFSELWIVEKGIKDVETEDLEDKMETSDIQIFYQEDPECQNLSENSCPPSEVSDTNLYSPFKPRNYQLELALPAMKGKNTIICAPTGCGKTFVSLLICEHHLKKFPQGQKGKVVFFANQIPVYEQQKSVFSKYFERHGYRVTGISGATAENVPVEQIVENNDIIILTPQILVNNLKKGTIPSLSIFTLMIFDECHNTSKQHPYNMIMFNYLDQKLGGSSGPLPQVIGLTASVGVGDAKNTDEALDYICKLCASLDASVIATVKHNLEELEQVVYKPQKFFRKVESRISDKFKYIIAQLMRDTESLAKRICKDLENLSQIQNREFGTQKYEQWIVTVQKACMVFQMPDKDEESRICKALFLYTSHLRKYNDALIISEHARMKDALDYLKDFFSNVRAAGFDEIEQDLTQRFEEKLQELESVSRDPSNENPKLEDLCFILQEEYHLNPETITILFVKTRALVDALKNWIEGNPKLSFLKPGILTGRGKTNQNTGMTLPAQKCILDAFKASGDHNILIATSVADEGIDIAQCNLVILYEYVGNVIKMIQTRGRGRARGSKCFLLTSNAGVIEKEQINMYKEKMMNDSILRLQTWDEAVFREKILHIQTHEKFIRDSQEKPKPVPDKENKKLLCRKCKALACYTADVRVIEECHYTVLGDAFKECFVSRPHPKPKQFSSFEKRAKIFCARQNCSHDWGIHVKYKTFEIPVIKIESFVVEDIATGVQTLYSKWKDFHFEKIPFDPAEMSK
Description: (§1) Reporter activity was measured 16 h after compound treatment. A nonlinear regression analysis was performed. […] Circles indicate substitutes compared to C-176. d, e, Chemical compounds from (c) were tested at 0.5 µM for inhibitory activity in HEK293T cells transfected with STING (e) or RIG-I (f) in conjunction with IFN-• luciferase reporter, respectively. b, e, f, Values of inhibitor-treated cells were normalized to DMSO-treated cells. […] Cytokine levels were normalized to DMSO-treated control cells. A nonlinear regression analysis was performed for cGAMP stimulation. b, c, BMDMs were pre-treated with C-178 (0.25 µM) and stimulated with cGAMP, cyclic di-GMP, CMA, 90mer dsDNA or LPS for 3 h. The induction of Ifnb1 mRNA levels was assessed by RT-qPCR. d, Heatmaps of RNA sequencing analysis of BMDMs treated with DMSO or CMA and with or without addition of C-178. […] Reporter activity was measured 16 h after transfection and values were normalized to DMSO-treated control cells. c, BMDMs were treated with C-178 (0.25 µM) for 1 h, washed or left untreated and after an additional hour stimulated with cGAMP. […] Flag-STING was immunoprecipitated from whole cell lysate and analysed by autoradiography. In parallel, cell lysates were analysed by immunoblotting for p-TBK1 and STING. d, HEK293T cells expressing STING were treated as indicated (C-178 (1 µM)) and stimulated with CMA for 1.5 h. […]

[2] = mouse, in vivo, ip
[3] = biological target: T2, STING (Mus musculus, UniProt Q3TBT3); assay: Blue native gel assay of STING clusters; assay type: cell-based; parameters: expressed in transfected cells; host or cells: HEK293T; conditions: C-178, C-176 1 µM, 2-BP 50 µM; CMA 1.5 h
T2 sequence (Q3TBT3 1-378): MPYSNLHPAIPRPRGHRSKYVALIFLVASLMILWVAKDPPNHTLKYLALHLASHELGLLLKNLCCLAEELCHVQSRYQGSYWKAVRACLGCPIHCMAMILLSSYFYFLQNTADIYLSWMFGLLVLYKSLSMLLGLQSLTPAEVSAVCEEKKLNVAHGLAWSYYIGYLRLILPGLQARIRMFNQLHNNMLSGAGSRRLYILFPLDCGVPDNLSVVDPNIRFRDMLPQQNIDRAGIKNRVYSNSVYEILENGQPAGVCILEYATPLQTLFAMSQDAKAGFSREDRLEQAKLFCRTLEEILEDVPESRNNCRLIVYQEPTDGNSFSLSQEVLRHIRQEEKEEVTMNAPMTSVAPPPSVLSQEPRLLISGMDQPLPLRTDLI
Description: as §1

Compound: O=C(Nc1ccc(I)cc1)c1ccc([N+](=O)[O-])o1 [C-176, N-(4-iodophenyl)-5-nitro-2-furamide]
- RIG-I-driven IFN induction [1]: neither RIG-I nor TBK1-driven IFN induction was affected
- serum half-life [2]: short
- assembly of STING clusters [3]: blocked
